Active and inactive are the calls of the source. The calls are words filed in the database; no cut-off is given here. *1 amine or outer side, *2 acyl side, *3 side chain or, on linkers, in order; H or OH if unused. Where a SMILES comes first, the peptide text is derived from it. Bridges are numbered along the chain shown (N, C = ends). Roman numbers before positions name the chains, in order. [ ]: non-standard residue; d: D form. Actinocin(1to9) = Cc1c2oc3c(C)ccc(C(=O)[*:2])c3nc-2c(C(=O)[*:1])c(N)c1=O; NMeV = CN[C@H](C(=O)O)C(C)C; Sar = CNCC(=O)O
Tests used:
[1] = Inhibition of Stenotrophomonas maltophilia SmltD using UDP-MurNAc-L-Ala[…] as substrate in presence of ATP incubated for 5 mins by HPLC
[2] = test system: Stenotrophomonas maltophilia; assay: Non-Competitive inhibition of Stenotrophomonas maltophilia SmltD using UDP-MurNAc-L-Ala[…] as substrate by Dixon plot analysis
[3] = Competitive inhibition of Stenotrophomonas maltophilia SmltD assessed as inhibition constant using ATP as substrate by Dixon plot analysis
[4] = test system: Stenotrophomonas maltophilia; assay: Non-Competitive inhibition of Stenotrophomonas maltophilia SmltD using […] as substrate by Dixon plot analysis

Structure (SMILES) | IC50 ([1]; read-out: IC50) [µM] | other results
Cc1c2oc3c(C)ccc(C(=O)N[C@@H]4C(=O)N[C@H](C(C)C)C(=O)N5CCC[C@H]5C(=O)N(C)CC(=O)N(C)[C@@H](C(C)C)C(=O)O[C@@H]4C)c3nc-2c(C(=O)N[C@@H]2C(=O)N[C@H](C(C)C)C(=O)N3CCC[C@H]3C(=O)N(C)CC(=O)N(C)[C@@H](C(C)C)C(=O)O[C@@H]2C)c(N)c1=O [DACTINOMYCIN] (I: T[dV]P[Sar][NMeV] / II: T[dV]P[Sar][NMeV]; ester I:1-I:C, II:1-II:C; linker I:N-II:N via Actinocin(1to9)) | 14600 | 
O=c1c(O[C@H]2OC[C@@H](O)[C@@H](O)[C@@H]2O)c(-c2ccc(O)cc2)oc2cc(O)cc(O)c12 | 2050 | 
O=C(OC[C@H]1O[C@@H](Oc2c(-c3ccc(O)cc3)oc3cc(O)cc(O)c3c2=O)[C@H](O)[C@@H](O)[C@@H]1O)c1cc(O)c(O)c(O)c1 | 460 | inhibition [2]: Active; Ki [3]: 110 µM; inhibition [4]: Active
O=C(O)c1cc(O)c(O)c(O)c1 [GALLIC ACID] | 2860 | 
OC[C@H]1O[C@@H](O)[C@H](O)[C@@H](O)[C@@H]1O [beta-D-Glucose] |  | IC50 [1]: Not Active
O=c1c(O)c(-c2ccc(O)cc2)oc2cc(O)cc(O)c12 [KAEMPFEROL] | 2360 | 
O[C@H]1[C@H](O)[C@@H](O)OC[C@H]1O |  | IC50 [1]: Not Active
O=c1c(O[C@@H]2O[C@H](CO)[C@@H](O)[C@H](O)[C@H]2O)c(-c2ccc(O)cc2)oc2cc(O)cc(O)c12 [ASTRAGALIN] | 1180 | 
